Laboratory results published in publication PMC10714133 (RSC Advances, 2023).

Tests used:
[1] = system: P. knowlesi A1H1; test: Plasmodium lactate dehydrogenase; type: cell-based, Plasmodium knowlesi; conditions: for Selectivity index (SI) P. knowlesi: IC50 WRL-68 / EC50 PkA1H1; for Antimalarial activity class against A1H1 strain: class by EC50 threshold; for EC50 against A1H1 strain, fold higher than CQ: relative to chloroquine diphosphate
[2] = system: P. falciparum 3D7; test: Plasmodium lactate dehydrogenase; type: cell-based, Plasmodium falciparum; conditions: for Selectivity index (SI) P. falciparum: IC50 WRL-68 / EC50 Pf3D7; for Antimalarial activity class against 3D7 strain: class by EC50 threshold; for EC50 against 3D7, fold higher than CQ: relative to chloroquine diphosphate
[3] = system: WRL-68 cell (human normal liver cell line); test: MTT cytotoxicity assay; type: cell-based; conditions: read-out: WRL-68 cell (mammalian cell) IC50 (μM) ± SD, 72 hours incubation

| Compound | Selectivity index (SI) P. knowlesi [1] | Selectivity index (SI) P. falciparum [2] | further results |
| --- | --- | --- | --- |
| CCN(CC)CCCC(C)Nc1ccnc2cc(Cl)ccc12 (stereo not drawn) [CQ, chloroquine diphosphate, reference compound] | >2500 | >2500 |  |
| O=C(/C=C/c1cccc(O)c1)c1ccc(F)cc1 [Compound 1a, (E)-1-(4-Fluorophenyl)-3-(3-hydroxyphenyl)prop-2-en-1-one] | 1.34 | 1.50 |  |
| O=C(/C=C/c1ccc(O)cc1)c1ccc(F)cc1 [Compound 1b, (E)-1-(4-Fluorophenyl)-3-(4-hydroxyphenyl)prop-2-en-1-one] | 0.14 |  |  |
| O=C(/C=C/c1ccc(O)cc1)c1ccc(Cl)cc1 [Compound 1c, (E)-1-(4-Chlorophenyl)-3-(4-hydroxyphenyl)prop-2-en-1-one] | 0.52 |  |  |
| O=C(/C=C/c1cccc(O)c1)c1ccc(Cl)cc1 [Compound 1d, (E)-1-(4-Chlorophenyl)-3-(3-hydroxyphenyl)prop-2-en-1-one] | 0.31 |  |  |
| O=C(/C=C/c1ccc(CN2CCCCC2)c(O)c1)c1ccc(F)cc1 [Compound 2a, (E)-1-(4-Fluorophenyl)-3-(3-hydroxy-4-(piperidin-1-ylmethyl)phenyl)prop-2-en-1-one] | 10.50 |  | Antimalarial activity class against A1H1 strain [1]: active; EC50 against A1H1 strain, fold higher than CQ [1]: about 66 fold; Antimalarial activity class against 3D7 strain [2]: potential (EC50 < 1 μM as potential activity); EC50 against 3D7, fold higher than CQ [2]: about 48 fold |
| O=C(/C=C/c1ccc(O)c(CN2CCOCC2)c1)c1ccc(F)cc1 [Compound 2b, (E)-1-(4-Fluorophenyl)-3-(4-hydroxy-3-(morpholinomethyl)phenyl)prop-2-en-1-one] | 0.65 |  |  |
| O=C(/C=C/c1ccc(O)c(CN2CCCCC2)c1)c1ccc(F)cc1 [Compound 2c, (E)-1-(4-Fluorophenyl)-3-(4-hydroxy-3-(piperidin-1-ylmethyl)phenyl)prop-2-en-1-one] | 1.09 |  |  |
| CC1CCN(Cc2cc(/C=C/C(=O)c3ccc(Cl)cc3)ccc2O)CC1 [Compound 2f, (E)-1-(4-Chlorophenyl)-3-(4-hydroxy-3-((4-methylpiperidin-1-yl)methyl)phenyl)prop-2-en-1-one] | 4.10 | 4.73 | Antimalarial activity class against A1H1 strain [1]: active; Antimalarial activity class against 3D7 strain [2]: good |
| CC1CCN(Cc2ccc(/C=C/C(=O)c3ccc(Cl)cc3)cc2O)CC1 [Compound 2g, (E)-1-(4-Chlorophenyl)-3-(3-hydroxy-4-((4-methylpiperidin-1-yl)methyl)phenyl)prop-2-en-1-one] | 0.47 | 0.54 |  |
| O=C(/C=C/c1ccc(CN2CCCCC2)c(O)c1)c1ccc(Br)cc1 [Compound 2h, (E)-1-(4-Bromophenyl)-3-(3-hydroxy-4-(piperidin-1-ylmethyl)phenyl)prop-2-en-1-one] |  |  | IC50 [3]: > 99 µM; EC50 against A1H1 strain, fold higher than CQ [1]: about 3 fold; Antimalarial activity class against 3D7 strain [2]: potential (EC50 < 1 μM as potential activity); EC50 against 3D7, fold higher than CQ [2]: 83 fold |
